Measured values: US20110160167A1, “Steroid Derivatives Acting As Glucocorticosteroid Receptor Agonists” (AstraZeneca AB, priority 2007, published 2011)

Target: T1, recombinant human GR (Homo sapiens, UniProt P04150)
T1 construct: purchased Panvera/Invitrogen P2812 (kit P2893)
T1 sequence (P04150 1-777): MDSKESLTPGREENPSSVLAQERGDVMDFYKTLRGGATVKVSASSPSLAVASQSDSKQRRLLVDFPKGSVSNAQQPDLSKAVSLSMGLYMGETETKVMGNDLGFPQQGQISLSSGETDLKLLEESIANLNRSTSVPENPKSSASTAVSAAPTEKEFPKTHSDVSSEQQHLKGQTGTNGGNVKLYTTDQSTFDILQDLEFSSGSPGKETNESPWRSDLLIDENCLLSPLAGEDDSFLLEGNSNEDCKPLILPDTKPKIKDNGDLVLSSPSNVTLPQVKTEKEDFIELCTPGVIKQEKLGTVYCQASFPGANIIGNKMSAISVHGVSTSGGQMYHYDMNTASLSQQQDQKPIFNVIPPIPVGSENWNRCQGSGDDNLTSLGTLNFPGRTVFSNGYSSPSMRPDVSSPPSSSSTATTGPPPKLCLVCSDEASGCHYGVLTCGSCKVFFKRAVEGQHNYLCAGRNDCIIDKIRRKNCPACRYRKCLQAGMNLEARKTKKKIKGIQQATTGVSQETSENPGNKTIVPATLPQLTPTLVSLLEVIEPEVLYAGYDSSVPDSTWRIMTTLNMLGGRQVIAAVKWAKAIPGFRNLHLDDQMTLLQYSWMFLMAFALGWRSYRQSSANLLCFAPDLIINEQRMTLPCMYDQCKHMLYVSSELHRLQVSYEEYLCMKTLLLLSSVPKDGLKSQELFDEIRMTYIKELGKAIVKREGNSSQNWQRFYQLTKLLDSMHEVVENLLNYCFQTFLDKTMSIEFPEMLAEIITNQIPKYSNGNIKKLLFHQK
Test: Human Glucocorticoid Receptor (GR) Assay (fluorescence polarization, Panvera/Invitrogen kit)
Conditions: GS Red tracer, 2 hours at room temperature, 100% control 10 μM Dexamethasone, read-out: Inhibition of GR binding, IC50
Description: Human Glucocorticoid Receptor (GR) Assay The assay is based on a commercial kit from Panvera/Invitrogen (Part number P2893). The assay technology is fluorescence polarization. The kit utilises recombinant human GR (Panvera, Part number P2812), a Fluoromone™ labelled tracer (GS Red, Panvera, Part number P2894) and a Stabilizing Peptide 10× (Panvera, Part number P2815). The GR and Stabilizing Peptide reagents are stored at −70° C. while the GS Red is stored at −20° C. Also included in the kit are 1M DTT (Panvera, Part number P2325, stored at −20° C.) and GR Screening buffer 10× (Panvera, Part number P2814, stored at −70° C. initially but once thawed stored at room temperature). Avoid repeated freeze/thaws for all reagents. The GR Screening buffer 10× comprises 100 mM potassium phosphate, 200 mM sodium molybdate, 1 mM EDTA and 20% DMSO. Test compounds (1 μL) and controls (1 μL) in 100% DMSO were added to black polystyrene 384-well plates (Greiner low volume black flat-bottom, part number 784076). 0% control was 100% DMSO and 100% control was 10 μM Dexamethasone. Background solution (8 μL; assay buffer 10×, Stabilizing Peptide, DTT and ice cold MQ water) was added to the background wells. GS Red solution (7 μL; assay buffer 10×, Stabilizing Peptide, DTT, GS Red and ice cold water) was added to all wells except background wells. GR solution (7 μL; assay buffer 10×, Stabilizing Peptide, DTT, GR and ice cold water) was added to all wells. The plate was sealed and incubated in a dark at room temperature for 2 hours. The plate was read in an Analyst plate reader (LJL Biosystems/Molecular Devices Corporation) or other similar plate reader capable of recording fluorescence polarization (excitation wavelength 530 nm, emission wavelength 590 nm and a dichroic mirror at 561 nm).

For `CCC[C@@H]1O[C@@H]2C[C@H]3[C@@H]4CCC5=Cc6c(cnn6-c6ccc(F)cc6)C[C@]5(C)[C@H]4[C@@H](O)C[C@]3(C)[C@]2(C(=O)SCC#N)O1` [Example 25, (4aR,4bS,5S,6aS,6bS,8R,9aR,10aS,10bS)-6b-(cyanomethylthiocarbonyl)-1-(4-fluorophenyl)-5-hydroxy-4a,6a-dimethyl-8-propyl-4,4a,4b,5,6,6a,9a,10,10a,10b,11,12-dodecahydro[1,3]dioxolo[3′,4′]cyclopenta[1′,2′:5,6]naphtho[1,2-f]indazol], the IC50 was 12 nM.
